Patent US12441725B2, “ISO-citrate dehydrogenase (IDH) inhibitor” (ZHEJIANG METON PHARMACEUTICAL CO., LTD, priority 2019, dated 2025)

Columns and labels:
IDH1 R132H = molecular target: T1, IDH1 R132H (Homo sapiens, UniProt O75874, R132H); experiment: Biochemical assay for IDH inhibition (NADPH fluorescence), mutant IDH1 R132H; details: 50 nM IDH1-R132H, 1 hour pre-incubation, in triplet
T1 construct: 6xHis
Outline: (§1)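 The read-out was the linear-phase loss of NADPH fluorescence (340/460 nm) over 15 min, background-subtracted and normalized to DMSO wells, giving triplicate IC50 values. Beforehand, R132H (50 nM) or R132C (25 nM) was exposed to compound for 1 h at room temperature with 1.33 mM α-KG at pH 7.5, and the reaction was triggered by adding an 80 μM NADPH solution.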

IDH1 R132C = molecular target: T2, IDH1 R132C (Homo sapiens, UniProt O75874, R132C); experiment: Biochemical assay for IDH inhibition (NADPH fluorescence), mutant IDH1 R132C; details: 25 nM IDH1-R132C, 1 hour pre-incubation, in triplet
T2 construct: 6xHis
T2 sequence (O75874 whole entry R132C): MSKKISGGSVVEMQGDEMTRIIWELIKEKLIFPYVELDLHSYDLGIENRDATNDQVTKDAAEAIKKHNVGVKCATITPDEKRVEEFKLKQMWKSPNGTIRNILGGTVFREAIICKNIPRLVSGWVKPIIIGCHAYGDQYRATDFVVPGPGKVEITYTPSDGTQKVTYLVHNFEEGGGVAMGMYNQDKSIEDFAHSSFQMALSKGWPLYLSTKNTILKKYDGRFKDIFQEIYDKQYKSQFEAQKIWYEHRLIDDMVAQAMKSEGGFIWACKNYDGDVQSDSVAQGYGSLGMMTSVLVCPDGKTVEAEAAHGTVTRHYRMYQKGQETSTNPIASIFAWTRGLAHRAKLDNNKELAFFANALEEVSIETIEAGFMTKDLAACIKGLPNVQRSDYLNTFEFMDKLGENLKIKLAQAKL
Outline: as §1

[1] = molecular target: T3, IDH (endogenous IDH1 R132C) in HT1080 cell (Homo sapiens, UniProt O75874, R132C); experiment: Cell-based assay for IDH inhibition (decrease of D-2-HG) in HT1080 cells; details: human fibrosarcoma cell line HT1080, 16 hours treatment, D-2-HG by LC-MS, in triplet
T3 construct: which harbor endogenous heterozygous IDH1 R132C and R132H mutation respectively and accumulate D-2-HG
T3 sequence (O75874 2-414 R132C): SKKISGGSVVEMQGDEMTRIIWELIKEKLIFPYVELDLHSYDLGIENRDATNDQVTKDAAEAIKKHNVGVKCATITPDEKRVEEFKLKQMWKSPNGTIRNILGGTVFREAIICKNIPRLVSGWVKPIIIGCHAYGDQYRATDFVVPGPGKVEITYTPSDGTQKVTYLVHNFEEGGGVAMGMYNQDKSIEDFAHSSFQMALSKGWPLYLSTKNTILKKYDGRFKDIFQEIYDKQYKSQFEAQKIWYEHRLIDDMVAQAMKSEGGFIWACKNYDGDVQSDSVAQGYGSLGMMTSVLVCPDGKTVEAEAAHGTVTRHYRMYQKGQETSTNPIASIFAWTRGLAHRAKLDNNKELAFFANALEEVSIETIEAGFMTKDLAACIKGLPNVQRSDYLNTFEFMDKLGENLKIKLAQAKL
Outline: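 LC-MS/MS quantification of D-2-HG, normalized to glutamate, follows a 16 h compound exposure of IDH1 R132C HT1080 cells in DMEM with 10% FBS. Extraction uses pre-chilled 40% methanol/40% acetonitrile in water. Triplicate determinations; IC50 from D-2-HG levels relative to DMSO-treated cells.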

T1 sequence (O75874 whole entry R132H): as the sequence (O75874 whole entry R132C) above, with C132H counted along it

| SMILES | IC50 (IDH1 R132H) | IC50 (IDH1 R132C) | IC50 [1] |
| --- | --- | --- | --- |
| CCN1Cc2c(ccnc2N[C@@H](C)c2ccc(-c3ccnc(C(C)(C)C#N)c3)c(F)c2)C1=O [Compound 84, (S)-2-(4-(4-(1-((2-ethyl-1-oxo-2,3-dihydro-1H-pyrrolo[3,4-c]pyridin-4-yl)amino)ethyl)-2-fluorophenyl)pyridin-2-yl)-2-methylpropanenitrile] | 100 to 500 nM | > 1000 nM | > 1000 nM |
| CCN1Cc2c(ccnc2N[C@@H](C)c2ccc(-c3ccnc(C(O)C4CC4)c3)c(F)c2)C1=O (stereo partly drawn) [Compound 85, 4-(((1S)-1-(4-(2-(cyclopropyl(hydroxy)methyl)pyridin-4-yl)-3-fluorophenyl)ethyl)amino)-2-ethyl-2,3-dihydro-1H-pyrrolo[3,4-c]pyridin-1-one] | > 1000 nM | > 1000 nM | > 1000 nM |
| CCN1Cc2c(ccnc2N[C@@H](C)c2ccc(-c3ccnc(C(=O)C4CC4)c3)c(F)c2)C1=O [Compound 86, (S)-4-((1-(4-(2-(cyclopropanecarbonyl)pyridin-4-yl)-3-fluorophenyl)ethyl)amino)-2-ethyl-2,3-dihydro-1H-pyrrolo[3,4-c]pyridin-1-one] | > 1000 nM | > 1000 nM | > 1000 nM |
| CCN1Cc2c(ccnc2N[C@@H](C)c2cc(F)c(-c3ccnc(C(C)(C)C)c3)cc2F)C1=O [Compound 87, (S)-4-((1-(4-(2-(tert-butyl)pyridin-4-yl)-2,5-difluorophenyl)ethyl)amino)-2-ethyl-2,3-dihydro-1H-pyrrolo[3,4-c]pyridin-1-one] | < 100 nM | < 100 nM | < 100 nM |
| CCN1Cc2c(ccnc2N[C@@H](C)c2cc(F)c(-c3ccnc(C(F)(F)F)c3)cc2F)C1=O [Compound 88, (S)-4-((1-(2,5-difluoro-4-(2-(trifluoromethyl)pyridin-4-yl)phenyl)ethyl)amino)-2-ethyl-2,3-dihydro-1H-pyrrolo[3,4-c]pyridin-1-one] | 500 to 1000 nM | > 1000 nM | > 1000 nM |
| CCN1Cc2c(ccnc2N[C@@H](C)c2cc(F)c(-c3ccnc(C4CCC4)c3)cc2F)C1=O [Compound 89, (S)-4-((1-(4-(2-cyclobutylpyridin-4-yl)-2,5-difluorophenyl)ethyl)amino)-2-ethyl-2,3-dihydro-1H-pyrrolo[3,4-c]pyridin-1-one] | < 100 nM | 100 to 500 nM | 100 to 500 nM |
| CCN1Cc2c(ccnc2N[C@@H](C)c2cc(F)c(-c3ccnc(C4CC4)c3)cc2F)C1=O [Compound 90, (S)-4-((1-(4-(2-cyclopropylpyridin-4-yl)-2,5-difluorophenyl)ethyl)amino)-2-ethyl-2,3-dihydro-1H-pyrrolo[3,4-c]pyridin-1-one] | 100 to 500 nM | > 1000 nM | 500 to 1000 nM |
| CCN1Cc2c(ccnc2N[C@@H](C)c2cc(F)c(-c3ccnc(CC4CC4)c3)cc2F)C1=O [Compound 91, (S)-4-((1-(4-(2-(cyclopropylmethyl)pyridin-4-yl)-2,5-difluorophenyl)ethyl)amino)-2-ethyl-2,3-dihydro-1H-pyrrolo[3,4-c]pyridin-1-one] | 100 to 500 nM | 500 to 1000 nM | 100 to 500 nM |
| CCN1Cc2c(ccnc2N[C@@H](C)c2cc(F)c(-c3ccnc(-c4ccn(C)c4)c3)cc2F)C1=O [Compound 92, (S)-4-((1-(2,5-difluoro-4-(2-(1-methyl-1H-pyrrol-3-yl)pyridin-4-yl)phenyl)ethyl)amino)-2-ethyl-2,3-dihydro-1H-pyrrolo[3,4-c]pyridin-1-one] | > 1000 nM | > 1000 nM | 100 to 500 nM |
| CCN1Cc2c(ccnc2N[C@@H](C)c2cc(F)c(-c3ccnc(C4COC4)c3)cc2F)C1=O [Compound 93, (S)-4-((1-(2,5-difluoro-4-(2-(oxetan-3-yl)pyridin-4-yl)phenyl)ethyl)amino)-2-ethyl-2,3-dihydro-1H-pyrrolo[3,4-c]pyridin-1-one] | > 1000 nM | > 1000 nM | > 1000 nM |

More lines, now with the values ahead:

| IC50 (IDH1 R132H) | IC50 (IDH1 R132C) | IC50 [1] | SMILES |
| --- | --- | --- | --- |
| > 1000 nM | > 1000 nM | > 1000 nM | CCN1Cc2c(ccnc2N[C@@H](C)c2cc(F)c(-c3ccnc(C4(O)COC4)c3)cc2F)C1=O [Compound 94, (S)-4-((1-(2,5-difluoro-4-(2-(3-hydroxyoxetan-3-yl)pyridin-4-yl)phenyl)ethyl)amino)-2-ethyl-2,3-dihydro-1H-pyrrolo[3,4-c]pyridin-1-one] |
| > 1000 nM | > 1000 nM | 500 to 1000 nM | CCN1Cc2c(ccnc2N[C@@H](C)c2cc(F)c(-c3ccnc(Cl)c3)cc2F)C1=O [Compound 95, (S)-4-((1-(4-(2-chloropyridin-4-yl)-2,5-difluorophenyl)ethyl)amino)-2-ethyl-2,3-dihydro-1H-pyrrolo[3,4-c]pyridin-1-one] |
| 100 to 500 nM | 500 to 1000 nM | 100 to 500 nM | CCN1Cc2c(ccnc2N[C@@H](C)c2cc(F)c(-c3ccnc(-c4ccnc(Cl)c4)c3)cc2F)C1=O [Compound 96, (S)-4-((1-(4-(2′-chloro-[2,4′-bipyridin]-4-yl)-2,5-difluorophenyl)ethyl)amino)-2-ethyl-2,3-dihydro-1H-pyrrolo[3,4-c]pyridin-1-one] |
| 100 to 500 nM | 500 to 1000 nM | 100 to 500 nM | CCN1Cc2c(ccnc2N[C@@H](C)c2cc(F)c(-c3ccnc(C4CC(F)(F)C4)c3)cc2F)C1=O [Compound 97, (S)-4-((1-(4-(2-(3,3-difluorocyclobutyl)pyridin-4-yl)-2,5-difluorophenyl)ethyl)amino)-2-ethyl-2,3-dihydro-1H-pyrrolo[3,4-c]pyridin-1-one] |
| 500 to 1000 nM | > 1000 nM | 100 to 500 nM | CCN1Cc2c(ccnc2N[C@@H](C)c2cc(F)c(-c3ccnc(-c4ccccc4)c3)cc2F)C1=O [Compound 98, (S)-4-((1-(2,5-difluoro-4-(2-phenylpyridin-4-yl)phenyl)ethyl)amino)-2-ethyl-2,3-dihydro-1H-pyrrolo[3,4-c]pyridin-1-one] |
| > 1000 nM | > 1000 nM | 500 to 1000 nM | CCN1Cc2c(ccnc2N[C@@H](C)c2cc(F)c(-c3ccnc(-c4cccnc4)c3)cc2F)C1=O [Compound 99, (S)-4-((1-(4-([2,3′-bipyridin]-4-yl)-2,5-difluorophenyl)ethyl)amino)-2-ethyl-2,3-dihydro-1H-pyrrolo[3,4-c]pyridin-1-one] |
| 100 to 500 nM | 500 to 1000 nM | 100 to 500 nM | CCN1Cc2c(ccnc2N[C@@H](C)c2cc(F)c(-c3ccnc(-c4cncc(Cl)c4)c3)cc2F)C1=O [Compound 100, (S)-4-((1-(4-(5′-chloro-[2,3′-bipyridin]-4-yl)-2,5-difluorophenyl)ethyl)amino)-2-ethyl-2,3-dihydro-1H-pyrrolo[3,4-c]pyridin-1-one] |
| < 100 nM | 100 to 500 nM | 100 to 500 nM | CCN1Cc2c(ccnc2N[C@@H](C)c2cc(F)c(-c3ccnc(C4CCCC4)c3)cc2F)C1=O [Compound 101, (S)-4-((1-(4-(2-cyclopentylpyridin-4-yl)-2,5-difluorophenyl)ethyl)amino)-2-ethyl-2,3-dihydro-1H-pyrrolo[3,4-c]pyridin-1-one] |
| < 100 nM | 100 to 500 nM | 100 to 500 nM | CCN1Cc2c(ccnc2N[C@@H](C)c2cc(F)c(-c3ccnc(C(C)(C)F)c3)cc2F)C1=O [Compound 102, 4-[[(1S)-1-[2,5-difluoro-4-[2-(1-fluoro-1-methyl-ethyl)-4-pyridyl]phenyl]ethyl]amino]-2-ethyl-3H-pyrrolo[3,4-c]pyridin-1-one] |
| > 1000 nM | > 1000 nM | > 1000 nM | CCN1Cc2c(ccnc2N[C@@H](C)c2cc(F)c(-c3ccnc(C(C)(C)O)c3)cc2F)C1=O [Compound 103, (S)-4-((1-(2,5-difluoro-4-(2-(2-hydroxypropan-2-yl)pyridin-4-yl)phenyl)ethyl)amino)-2-ethyl-2,3-dihydro-1H-pyrrolo[3,4-c]pyridin-1-one] |
| < 100 nM | < 100 nM | < 100 nM | CCN1Cc2c(ccnc2N[C@@H](C)c2cc(F)c(-c3cc(C(C)(C)C)ncc3F)cc2F)C1=O [Compound 104, (S)-4-((1-(4-(2-(tert-butyl)-5-fluoropyridin-4-yl)-2,5-difluorophenyl)ethyl)amino)-2-ethyl-2,3-dihydro-1H-pyrrolo[3,4-c]pyridin-1-one] |
| < 100 nM | < 100 nM | < 100 nM | CCN1Cc2c(ccnc2N[C@@H](C)c2cc(F)c(-c3ccnc(C(C)(C)C(F)(F)F)c3)cc2F)C1=O [Compound 105, (S)-4-((1-(2,5-difluoro-4-(2-(1,1,1-trifluoro-2-methylpropan-2-yl)pyridin-4-yl)phenyl)ethyl)amino)-2-ethyl-2,3-dihydro-1H-pyrrolo[3,4-c]pyridin-1-one] |
| 100 to 500 nM | 100 to 500 nM | 100 to 500 nM | CCN1Cc2c(ccnc2N[C@@H](C)c2cc(F)c(-c3ccnc(C(C)(F)F)c3)cc2F)C1=O [Compound 106, (S)-4-((1-(4-(2-(1,1-difluoroethyl)pyridin-4-yl)-2,5-difluorophenyl)ethyl)amino)-2-ethyl-2,3-dihydro-1H-pyrrolo[3,4-c]pyridin-1-one] |
| < 100 nM | < 100 nM | 100 to 500 nM | CCN1Cc2c(ccnc2N[C@@H](C)c2cc(F)c(-c3ccnc(C(F)(F)C(F)(F)F)c3)cc2F)C1=O [Compound 107, (S)-4-((1-(2,5-difluoro-4-(2-(perfluoroethyl)pyridin-4-yl)phenyl)ethyl)amino)-2-ethyl-2,3-dihydro-1H-pyrrolo[3,4-c]pyridin-1-one] |
